Experimental data as given in publication PMC10886162, “Synthesis of Novel Artemisinin, Ciprofloxacin, and Norfloxacin Hybrids with Potent Antiplasmodial Activity” (Antibiotics, 2024).

Experiments:
[1] = system: CQ-resistant P. falciparum FcB1 strain; assay: In vitro growth inhibition of P. falciparum FcB1 ([3H]-hypoxanthine incorporation); assay type: cell-based, Plasmodium falciparum; settings: for Selectivity Index (IC50 AB943/IC50 FcB1): ratio of cytotoxicity IC50 to antiplasmodial IC50 (FcB1)
Description: (§1) The chloroquine-resistant FcB1/Colombia and Dd2/Indochina strains of Plasmodium falciparum were obtained from the Protist Collection of the National Museum of Natural History, Paris, France (n° MNHN-CEU-2016-224-PfFCB1 and MNHN-CEU-2016-222-PfDD2). The parasites were maintained in vitro on human erythrocytes in RPMI 1640 medium supplemented by 8% (v/v) heat-inactivated human serum, at 37 °C, under an atmosphere of 5% CO2. The human red blood cells and serum were provided by the Établissement Français du Sang under the C-CPSL-UNT approval no. 13/EFS/126. The in vitro drug susceptibility assays were measured by [^3H]-hypoxanthine incorporation, as previously described. The drug stock solutions were prepared in DMSO. Briefly, the assays were performed in 96-well plates. The compounds were diluted in the culture medium (100 μL per well). The parasite cultures (100 μL, 2% parasitaemia, and 1% final hematocrit) were then added to each well and incubated for 24 h at 37 °C prior to the addition of 0.5 μCi of [^3H]- hypoxanthine (GE Healthcare, Paris, France, 1 to 5 Ci·mmol/mL) per well. After a further incubation of 24 h, the plates were frozen and thawed. The cell lysates were then collected onto fiberglass filters and counted in a liquid scintillation spectrometer. The growth inhibition for each drug concentration was determined through a comparison of the radioactivity incorporated in the treated culture with that in the control culture maintained on the same plate. The drugs were first evaluated for a range of fixed concentrations of 50, 5, 0.5, 0.05, and 0.005 μg/mL. […] The IC50 value was obtained from the drug concentration–response curve, and the results were expressed in μM or nM as the mean values ± standard deviations determined from several independent experiments. Artesunate (46) was used as an antimalarial drug control.

[2] = system: human primary fibroblasts AB943; assay: Cytotoxicity upon human primary fibroblasts AB943 (resazurin); assay type: cell-based; settings: Fibroblast, 72 h, mean +/− SD of at least three independent experiments
Description: A cellular cytotoxicity evaluation was performed upon human primary fibroblasts AB943, as previously described. The assays were realized in 96-well plates in DMEM + Glutamax without phenol red medium containing 25 mM HEPES, a pH of 7.3, and 10% of fetal calf serum under a 5% CO2 atmosphere, at 37 °C. After trypsin treatment, the AB943 cells were seeded at 2000 cells per well in 100 μL. After 24 h of incubation, drugs diluted in the culture medium were added (100 μL per well). The drug stock solutions were prepared in dimethyl sulfoxide (DMSO). The final DMSO concentration in the cultures remained below 1%. Control cultures were constituted of cultures treated with DMSO instead of the drug. The cytotoxicity assay was based on the conversion of a redo-sensitive dye (resazurin) to a fluorescent product via viable cells. After 72 h of incubation, the resazurin solution was added in each well at a final concentration of 45 μM. The fluorescence was measured at 530 nm excitation and 590 nm emission wavelengths after 4 h of incubation. The percentage of the inhibition of cell growth was calculated by comparing the fluorescence of cells maintained in the presence of the drug to that in the absence of the drug. The concentration causing 50% growth inhibition (IC50) was obtained from the drug concentration–response curve, and the results were expressed as the mean values ± standard deviations determined from several experiments.

[3] = system: CQ-resistant Dd2 strain of P. falciparum; assay: In vitro growth inhibition of P. falciparum Dd2 ([3H]-hypoxanthine incorporation); assay type: cell-based, Plasmodium falciparum; settings: for IC50: Plasmodium falciparum, CQ-resistant Dd2, mean +/− SD of at least three independent experiments; for Selectivity Index (IC50 AB943/IC50 Dd2): ratio of cytotoxicity IC50 to antiplasmodial IC50 (Dd2)
Description: as §1

[4] = Plasmodium falciparum, FCB1, CQ-resistant FcB1, IC50 determined from the compound tested at 50, 5, 0.5 µg/mL and 50 and 5 ng/mL in triplicate (footnote b)
[5] = Plasmodium falciparum, FCB1, CQ-resistant FcB1, mean +/− standard deviation of independent experiments (at least four in Tables 1-2, at least three in Tables 3-4)
[6] = Plasmodium falciparum, FCB1, Table 5, CPX or NRX fragments alone
[7] = CQ-resistant FcB1, IC50 determined from the compound tested at 50, 5, 0.5 µg/mL and 50 and 5 ng/mL in triplicate (footnote b)

Work on `O=C(O)c1cn(C2CC2)c2cc(N3CCNCC3)c(F)cc2c1=O` [CPX, ciprofloxacin] yielded an IC50 [1, 4] of 54100 nM.
For `C[C@@H]1CCC2[C@@H](C)[C@@H](CC(=O)N3CCN(c4cc5c(cc4F)c(=O)c(C(=O)O)cn5C4CC4)CC3)O[C@@H]3O[C@@]4(C)CCC1[C@@]23OO4` (stereo partly drawn) [Compound 12, 1-cyclopropyl-6-fluoro-4-oxo-7-(4-(2-((3R,6R,9R,10R,12R,12aR)-3,6,9-trimethyldecahydro-12H-3,12-epoxy[1,2]dioxepino[4,3-i]isochromen-10-yl)acetyl)piperazin-1-yl)-1,4-dihydroquinoline-3-carboxylic acid], the IC50 [2] was 66100 nM, the IC50 [3] was 32.5 nM and the “Selectivity Index (IC50 AB943/IC50 Dd2)” value [3] was 2034. The melting point was 123 to 124 °C, the IC50 [1, 5] was 14.8 nM and the “Selectivity Index (IC50 AB943/IC50 FcB1)” value [1] was 4453.
For `C[C@@H]1CCC2[C@@H](C)[C@@H](CCC(=O)N3CCN(c4cc5c(cc4F)c(=O)c(C(=O)O)cn5C4CC4)CC3)O[C@@H]3O[C@@]4(C)CCC1[C@@]23OO4` (stereo partly drawn) [Compound 13, 1-cyclopropyl-6-fluoro-4-oxo-7-(4-(3-((3R,6R,9R,10R,12R,12aR)-3,6,9-trimethyldecahydro-12H-3,12-epoxy[1,2]dioxepino[4,3-i]isochromen-10-yl)propanoyl)piperazin-1-yl)-1,4-dihydroquinoline-3-carboxylic acid], the melting point was 136 to 137 °C and the IC50 [1, 4] was 2910 nM.
In the case of `CCOC(=O)c1cn(C2CC2)c2cc(N3CCN(C(=O)C[C@H]4O[C@@H]5O[C@@]6(C)CCC7[C@H](C)CCC([C@H]4C)[C@]75OO6)CC3)c(F)cc2c1=O` (stereo partly drawn) [Compound 14, Ethyl 1-cyclopropyl-6-fluoro-4-oxo-7-(4-(2-((3R,6R,9R,10R,12R,12aR)-3,6,9-trimethyldecahydro-12H-3,12-epoxy[1,2]dioxepino[4,3-i]isochromen-10-yl)acetyl)piperazin-1-yl)-1,4-dihydroquinoline-3-carboxylate], the melting point is reported as 142 to 143 °C and the IC50 [1, 4] is reported as 121 nM.
`CCOC(=O)c1cn(C2CC2)c2cc(N3CCN(C(=O)CC[C@H]4O[C@@H]5O[C@@]6(C)CCC7[C@H](C)CCC([C@H]4C)[C@]75OO6)CC3)c(F)cc2c1=O` (stereo partly drawn) [Compound 15, Ethyl 1-cyclopropyl-6-fluoro-4-oxo-7-(4-(3-((3R,6R,9R,10R,12R,12aR)-3,6,9-trimethyldecahydro-12H-3,12-epoxy[1,2]dioxepino[4,3-i]isochromen-10-yl)propanoyl)piperazin-1-yl)-1,4-dihydroquinoline-3-carboxylate] showed a melting point of 110.4 to 111.5 °C and an IC50 [1, 4] of 1470 nM.
Work on `CCCCOC(=O)c1cn(C2CC2)c2cc(N3CCN(C(=O)CC[C@H]4O[C@@H]5O[C@@]6(C)CCC7[C@H](C)CCC([C@H]4C)[C@]75OO6)CC3)c(F)cc2c1=O` (stereo partly drawn) [Compound 17, Butyl 1-cyclopropyl-6-fluoro-4-oxo-7-(4-(3-((3R,6R,9R,10R,12R,12aR)-3,6,9-trimethyldecahydro-12H-3,12-epoxy[1,2]dioxepino[4,3-i]isochromen-10-yl)propanoyl)piperazin-1-yl)-1,4-dihydroquinoline-3-carboxylate] yielded an IC50 [1, 4] of 362 nM.
`CCn1cc(C(=O)N2CCN(c3ccnc4cc(Cl)ccc34)CC2)c(=O)c2cc(F)c(N3CCN(C(=O)C[C@H]4O[C@@H]5O[C@@]6(C)CCC7[C@H](C)CCC([C@H]4C)[C@]75OO6)CC3)cc21` (stereo partly drawn) [Compound 27, 3-(4-(7-chloroquinolin-4-yl)piperazine-1-carbonyl)-1-ethyl-6-fluoro-7-(4-(2-((3R,6R,9R,10R,12R,12aR)-3,6,9-trimethyldecahydro-12H-3,12-epoxy[1,2]dioxepino[4,3-i]isochromen-10-yl)acetyl)piperazin-1-yl)quinolin-4(1H)-one] gave an IC50 [3] of 28.5 nM, a melting point of 173.6 to 174.5 °C and an IC50 [1, 5] of 6.6 nM.
`CCOC(=O)c1cn(C2CC2)c2cc(N3CCN(C(c4ccccc4)(c4ccccc4)c4ccccc4)CC3)c(F)cc2c1=O` [Compound 32, Ethyl 1-cyclopropyl-6-fluoro-4-oxo-7-(4-tritylpiperazin-1-yl)-1,4-dihydroquinoline-3-carboxylate] gave an IC50 [1, 4] of 41900 nM.
With `CCCCOC(=O)c1cn(C2CC2)c2cc(N3CCN(C(c4ccccc4)(c4ccccc4)c4ccccc4)CC3)c(F)cc2c1=O` [Compound 33, Butyl 1-cyclopropyl-6-fluoro-4-oxo-7-(4-tritylpiperazin-1-yl)-1,4-dihydroquinoline-3-carboxylate] the IC50 [1, 4] was 3900 nM.
Work on `CCOC(=O)c1cn(CC)c2cc(N3CCN(C(c4ccccc4)(c4ccccc4)c4ccccc4)CC3)c(F)cc2c1=O` [Compound 34, Ethyl 1-ethyl-6-fluoro-4-oxo-7-(4-tritylpiperazin-1-yl)-1,4-dihydroquinoline-3-carboxylate] yielded an IC50 [1, 4] of 84800 nM.
With `CCCCOC(=O)c1cn(CC)c2cc(N3CCN(C(c4ccccc4)(c4ccccc4)c4ccccc4)CC3)c(F)cc2c1=O` [Compound 35, Butyl 1-ethyl-6-fluoro-4-oxo-7-(4-tritylpiperazin-1-yl)-1,4-dihydroquinoline-3-carboxylate] the IC50 [1, 4] was 26200 nM.
Work on `O=C(c1cn(C2CC2)c2cc(N3CCN(C(c4ccccc4)(c4ccccc4)c4ccccc4)CC3)c(F)cc2c1=O)N1CCN(c2ccnc3cc(Cl)ccc23)CC1` [Compound 36, 3-(4-(7-chloroquinolin-4-yl)piperazine-1-carbonyl)-1-cyclopropyl-6-fluoro-7-(4-tritylpiperazin-1-yl)quinolin-4(1H)-one] yielded an IC50 [1, 4] of 26500 nM.
In the case of `CCn1cc(C(=O)N2CCN(c3ccnc4cc(Cl)ccc34)CC2)c(=O)c2cc(F)c(N3CCN(C(c4ccccc4)(c4ccccc4)c4ccccc4)CC3)cc21` [Compound 37, 3-(4-(7-chloroquinolin-4-yl)piperazine-1-carbonyl)-1-ethyl-6-fluoro-7-(4-tritylpiperazin-1-yl)quinolin-4(1H)-one], the IC50 [3] is reported as 307 nM and the IC50 [1, 5] is reported as 184 nM.
In the case of `CCOC(=O)c1cn(C2CC2)c2cc(N3CCNCC3)c(F)cc2c1=O` [Compound 38], the IC50 [1, 4] is reported as 53600 nM.
`CCCCOC(=O)c1cn(C2CC2)c2cc(N3CCNCC3)c(F)cc2c1=O` [Compound 39] gave an IC50 [1, 4] of 13600 nM and an IC50 [1, 6] of 7000 nM.
In the case of `CCOC(=O)c1cn(CC)c2cc(N3CCNCC3)c(F)cc2c1=O` [Compound 40], the IC50 [1, 4] is reported as 19700 nM and the IC50 [1, 6] is reported as 45700 nM.
In the case of `CCCCOC(=O)c1cn(CC)c2cc(N3CCNCC3)c(F)cc2c1=O` [Compound 41], the IC50 [1, 4] is reported as 13900 nM and the IC50 [1, 6] is reported as 8600 nM.
In the case of `O=C(c1cn(C2CC2)c2cc(N3CCNCC3)c(F)cc2c1=O)N1CCN(c2ccnc3cc(Cl)ccc23)CC1` [Compound 42], the IC50 [1, 7] is reported as 360 nM and the IC50 [1, 4] is reported as 360 nM.
In the case of `CCn1cc(C(=O)N2CCN(c3ccnc4cc(Cl)ccc34)CC2)c(=O)c2cc(F)c(N3CCNCC3)cc21` [Compound 43], the IC50 [2] is reported as 12700 nM, the IC50 [3] is reported as 483 nM and the “Selectivity Index (IC50 AB943/IC50 Dd2)” value [3] is reported as 26. For the same compound, the IC50 [1, 5] was 476 nM and the “Selectivity Index (IC50 AB943/IC50 FcB1)” value [1] was 27.
`CC1CCC2C(C)C(CC(=O)O)OC3OC4(C)CCC1C32OO4` (stereo not shown) [Compound 44, reference compound] showed an IC50 [1, 7] of 401 nM and an IC50 [1, 4] of 401 nM.
With `CC1CCC2C(C)C(CCC(=O)O)OC3OC4(C)CCC1C32OO4` (stereo not shown) [Compound 45, reference compound] the IC50 [1, 7] was 264 nM and the IC50 [1, 4] was 264 nM.
`CCn1cc(C(=O)O)c(=O)c2cc(F)c(N3CCNCC3)cc21` [NRX, norfloxacin] showed an IC50 [1, 4] of 81400 nM.
